In US20100056524A1, “Compound” (priority 2008, published 2010):
Counter-ions that a name gives are not always drawn. Like-named read-outs stand apart in the source and are kept apart here.

Experiments:
[1] = molecular target: T1, MNK2 (Homo sapiens, UniProt Q9HBH9); test: MNK2 protein kinase assay; type: biochemical; conditions: for remaining activity at 10 µM: 10 μM compound; for residual kinase activity MNK2: 1 μm compound; for remaining activity at 1 µM: 1 μM compound
T1 construct: All protein kinases were of human origin and encoded full length proteins, unless indicated otherwise; GST; made in house; host or cells: E. coli
T1 sequence (Q9HBH9 whole entry): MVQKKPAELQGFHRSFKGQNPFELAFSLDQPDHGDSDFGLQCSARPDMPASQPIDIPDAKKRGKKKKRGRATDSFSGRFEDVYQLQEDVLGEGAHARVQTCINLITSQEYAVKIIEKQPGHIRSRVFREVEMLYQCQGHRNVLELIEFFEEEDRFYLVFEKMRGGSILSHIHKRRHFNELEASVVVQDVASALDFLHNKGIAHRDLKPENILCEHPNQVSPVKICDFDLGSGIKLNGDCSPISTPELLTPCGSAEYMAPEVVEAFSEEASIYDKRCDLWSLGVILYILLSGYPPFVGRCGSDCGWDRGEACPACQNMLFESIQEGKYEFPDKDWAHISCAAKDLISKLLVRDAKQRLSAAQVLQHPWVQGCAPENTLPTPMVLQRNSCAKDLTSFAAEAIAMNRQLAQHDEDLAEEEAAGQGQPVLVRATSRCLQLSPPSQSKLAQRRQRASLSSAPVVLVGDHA
Source text: (§1) All protein kinases were of human origin and encoded full length proteins, unless indicated otherwise. They were either expressed as glutathione S-transferase (GST) fusion proteins in Escherichia Coli or as hexahistidine (His6)-tagged proteins in insect Sf21 cells. GST fusion proteins were purified by affinity chromatography on glutathione-Sepharose, and His6-tagged proteins on nickel/nitriloacetate-agarose. The procedures for expressing some of the protein kinases used herein have been detailed previously.^8,9 The following sections outline the DNA vectors synthesised and the procedures used to express and purifying protein kinases that have not been reported previously.
The following proteins were expressed in E. coli: —CHK2[5-543], cyclin-dependent protein kinase 2 (CDK2), MAP kinase-interacting kinase 2 (MNK2), extra-cellular signal-regulated kinase 1 (ERK1).
In order to produce activated forms of Aurora B and Aurora C, insect Sf21 cells were incubated for 1 h with the protein phosphatase inhibitor okadaic acid (50 nM). JNK isoforms were activated with MKK4 and MKK7, MNK2 with p38α MAPkinase; PKBα, PKBβ, with PDK1, and ERK1 with MKK1. To activate CDK2, bacterial pellets expressing cyclin A2 and CDK2 were mixed together, lyse and purified on glutathione Sepharose. The GST-tags were removed by cleavage with PreScission protease and the CDK2-cyclin A2 complex purified by chromatography on SP-Sepharose. It was then activated with CAK1/CDK7 followed by chromatography on nickel-nitrilotriacetate agarose to remove CAK1/CDK7, which binds to this column by virtue of its C-terminal His6 tag. All the other protein kinases were active as expressed.
(§2) All assays (25.5 μl) were carried out at room temperature (21° C.) and were linear with respect to time and enzyme concentration under the conditions used. Assays were performed for 30 min using Multidrop Micro reagent dispensers (Thermo Electron Corporation, Waltham, Mass. 02454, USA) in a 96-well format. The concentration of magnesium acetate in the assays was 10 mM and the [γ-33P] ATP (800 cpm/pmol) was used at 5, 20 or 50 μM as indicated, in order to be at or below the Km for ATP for each enzyme. Protein kinases assayed at 5 μM ATP were: —ERK1, ERK8, PKBα, MARK3, Aurora C. Protein kinases assayed at 20 μM ATP were: —JNK1, PDK1, CHK1, CHK2, CDK2 and Aurora B. Protein kinases assayed at 50 μM ATP were: —MNK2, IKKepsilon and TBK1.
(§3) The assays were initiated with MgATP, stopped by addition of 5 μl of 0.5 M orthophosphoric acid and spotted on to P81 filterplates using a unifilter harvester (PerkinElmer, Boston, Mass. 02118, USA). The IC50 values of inhibitors were determined after carrying out assays at 10 different concentrations of each compound.
ERK1 and ERK8 were both assayed against myelin basic protein (MBP, 0.33 mg/ml). MARK3 was assayed against the peptide […] (300 μM), MNK2 against the eIF4E protein (0.5 mg/ml). PKBβ was assayed against the peptide […] (30 μM). TBK1 were assayed against ([…]) (300 μM). The substrates used for other protein kinases were described previously.^8,9
(§4) Unless stated otherwise, enzymes were diluted in 50 mM Tris/HCl pH 7.5, 0.1 mM EGTA, 1 mg/ml BSA, 0.1% (v/v) 2-mercaptoethanol and assayed in 50 mM Tris/HCl pH 7.5, 0.1 mM EGTA, 0.1% (v/v) 2-mercaptoethanol.

[2] = molecular target: T2, EPH-B3 (Homo sapiens, UniProt P54753); test: EPH-B3 protein kinase assay; type: biochemical; conditions: for remaining activity at 10 µM: 10 μM compound; for residual kinase activity EPH-B3: 1 μm compound; for remaining activity at 1 µM: 1 μM compound
T2 construct: All protein kinases were of human origin and encoded full length proteins, unless indicated otherwise; made in house
T2 sequence (P54753 34-998): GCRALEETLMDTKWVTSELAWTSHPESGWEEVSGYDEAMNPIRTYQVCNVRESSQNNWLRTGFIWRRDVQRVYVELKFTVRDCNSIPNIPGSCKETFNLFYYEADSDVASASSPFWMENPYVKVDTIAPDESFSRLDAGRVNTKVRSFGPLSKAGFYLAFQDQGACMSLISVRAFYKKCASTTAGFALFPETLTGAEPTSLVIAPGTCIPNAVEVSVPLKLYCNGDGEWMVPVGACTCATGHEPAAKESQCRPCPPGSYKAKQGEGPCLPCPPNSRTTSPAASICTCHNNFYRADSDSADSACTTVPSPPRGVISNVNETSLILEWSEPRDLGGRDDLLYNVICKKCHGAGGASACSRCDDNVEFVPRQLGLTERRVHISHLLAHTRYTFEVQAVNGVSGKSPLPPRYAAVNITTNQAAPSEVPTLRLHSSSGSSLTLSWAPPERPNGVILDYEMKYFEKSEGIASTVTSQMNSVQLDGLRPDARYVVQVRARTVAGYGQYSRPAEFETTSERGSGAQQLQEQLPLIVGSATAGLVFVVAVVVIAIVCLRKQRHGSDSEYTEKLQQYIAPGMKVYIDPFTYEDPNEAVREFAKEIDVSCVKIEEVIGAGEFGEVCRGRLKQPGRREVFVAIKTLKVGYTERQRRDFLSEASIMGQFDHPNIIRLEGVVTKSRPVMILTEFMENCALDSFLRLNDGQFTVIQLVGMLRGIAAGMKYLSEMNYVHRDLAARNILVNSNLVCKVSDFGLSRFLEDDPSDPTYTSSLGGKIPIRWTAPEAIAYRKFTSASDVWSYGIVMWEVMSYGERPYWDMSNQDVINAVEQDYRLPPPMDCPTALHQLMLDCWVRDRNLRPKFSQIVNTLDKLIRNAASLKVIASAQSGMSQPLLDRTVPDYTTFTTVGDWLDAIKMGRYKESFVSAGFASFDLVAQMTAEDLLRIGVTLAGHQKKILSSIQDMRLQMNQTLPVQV
Source text: as §1, §2, §3, §4

[3] = read-out: residual kinase activity MNK2
[4] = read-out: residual kinase activity EPH-B3
[5] = MNK2, 50 μM ATP, read-out: residual kinase activity
[6] = EPH-B3, read-out: residual kinase activity

Structure (SMILES) | remaining activity at 10 µM [1, 3] [%] | residual kinase activity MNK2 [1] [%] | remaining activity at 10 µM [2, 4] [%] | residual kinase activity EPH-B3 [2] [%] | remaining activity at 1 µM [1, 5] [%] | remaining activity at 10 µM [1, 5] [%] | remaining activity at 1 µM [2, 6] [%] | remaining activity at 10 µM [2, 6] [%]
O=C(NCCCNc1nc(Nc2cccc(F)c2)ncc1Br)C1CCC1 [Compound A, cyclobutanecarboxylic acid {3-[5-bromo-2-(3-fluoro-phenylamino)-pyrimidin-4-ylamino]-propyl}-amide, reference compound] | 7 | 6 | 69 | 92 | – | – | – | –
O=C(NCCCNc1nc(Nc2cccc(F)c2)ncc1C1CC1)C1CCC1 [Example 23, Cyclobutanecarboxylic acid {3-[5-cyclopropyl-2-(3-fluoro-phenylamino)-pyrimidin-4-ylamino]-propyl}-amide] | 10 | 39 | 95 | 120 | 39 | 10 | 120 | 95
O=C(NCCCNc1nc(Nc2cccc(N3CCCC3=O)c2)ncc1C1CC1)c1cccs1 [Example 47, Thiophene-2-carboxylic acid (3-{5-cyclopropyl-2-[3-(2-oxo-pyrrolidin-1-yl)-phenylamino]-pyrimidin-4-ylamino}-propyl)-amide. Hydrochloride salt] | – | – | – | – | 36 | 16 | 48 | 93
O=C(NCCCNc1nc(Nc2cccnc2)ncc1C1CC1)c1cccs1 [Example 50, Thiophene-2-carboxylic acid {3-[5-cyclopropyl-2-(pyridin-3-ylamino)-pyrimidin-4-ylamino]-propyl}-amide] | – | – | – | – | 56 | 21 | 100 | 97
